The NIST ThermoML archive (doi:10.1016/j.jct.2005.04.019)

Tests used:
[1] = xn = mol fraction of the nth substance listed; conditions: 298.15 K, 101 kPa, Liquid; for speed of sound: Quartz crystal interferometer (Mittal Enterprises, India)
[2] = 298.15 K, 101.33 kPa, Liquid; for viscosity: Capillary tube (Ostwald / Ubbelohde) method; for mass density: Vibrating tube method; for speed of sound: Quartz crystal interferometer (Mittal Enterprises, India)

CC1CCCCC1 [methylcyclohexane] + CCO
[1]
Conditions	mass density [kg/m3]	speed of sound [m/s]	viscosity [mPa·s]
x1 = 0.0499	782.02	–	1.034
x1 = 0.1024	779.14	–	0.987
x1 = 0.1037	–	1146	–
x1 = 0.1492	776.99	–	0.949
x1 = 0.1893	–	1151	–
x1 = 0.194	775.25	–	0.915
x1 = 0.2467	773.53	–	0.886
x1 = 0.313	771.77	–	0.853
x1 = 0.3143	–	1157	–
x1 = 0.3363	771.24	–	0.841
x1 = 0.4007	–	1162	–
x1 = 0.4015	769.94	–	0.81
x1 = 0.4438	769.21	–	0.79
x1 = 0.4752	768.72	–	0.776
x1 = 0.4788	–	1166	–
x1 = 0.5844	767.23	–	0.732
x1 = 0.5884	–	1173	–
x1 = 0.6993	–	1181	–
x1 = 0.7002	765.95	–	0.692
x1 = 0.8147	765.03	–	0.672
x1 = 0.8209	–	1191	–
x1 = 0.8864	764.74	–	0.667
x1 = 0.8943	–	1196	–
x1 = 0.9473	–	1202	–

CCCCC(C)O (stereo unspecified) [2-hexanol]
[2]
Conditions	mass density [kg/m3]	viscosity [mPa·s]
–	810.25	4.204

CCCCCC(C)O (stereo unspecified) [2-heptanol]
[2]
Conditions	mass density [kg/m3]	viscosity [mPa·s]
–	813.33	5.346

CCCCCCC(C)O (stereo unspecified) [2-octanol] + CC1CCCCC1
[1]
Conditions	mass density [kg/m3]	speed of sound [m/s]	viscosity [mPa·s]
x2 = 0.1001	–	1292	–
x2 = 0.1006	811.52	–	4.941
x2 = 0.1185	810.68	–	4.692
x2 = 0.1672	808.39	–	4.097
x2 = 0.2032	–	1282	–
x2 = 0.2104	806.32	–	3.651
x2 = 0.2489	804.45	–	3.308
x2 = 0.2536	804.22	–	3.263
x2 = 0.3003	–	1269	–
x2 = 0.3171	801.09	–	2.769
x2 = 0.347	799.59	–	2.58
x2 = 0.3979	797.02	–	2.268
x2 = 0.4001	–	1258	–
x2 = 0.4503	794.35	–	2.022
x2 = 0.5043	–	1247	–
x2 = 0.5168	790.9	–	1.72
x2 = 0.5766	787.77	–	1.5
x2 = 0.5969	786.69	–	1.443
x2 = 0.5973	–	1239	–
x2 = 0.684	782.06	–	1.199
x2 = 0.6889	–	1231	–
x2 = 0.8058	775.5	–	0.943
x2 = 0.8109	–	1222	–
x2 = 0.9002	770.39	–	0.793
x2 = 0.9008	–	1219	–
x2 = 0.9466	–	1216	–

CCO [ethanol]
[2]
Conditions	mass density [kg/m3]	speed of sound [m/s]	viscosity [mPa·s]
–	785.32	1145	1.093

CCCC(C)O (stereo unspecified) [pentan-2-ol] + CC1CCCCC1
[1]
Conditions	mass density [kg/m3]	speed of sound [m/s]	viscosity [mPa·s]
x2 = 0.067	801.75	–	2.764
x2 = 0.1011	799.88	–	2.501
x2 = 0.1026	–	1227	–
x2 = 0.1561	796.91	–	2.148
x2 = 0.2018	–	1219	–
x2 = 0.2088	794.12	–	1.863
x2 = 0.2653	791.21	–	1.618
x2 = 0.2991	789.53	–	1.488
x2 = 0.3077	–	1211	–
x2 = 0.3581	786.7	–	1.317
x2 = 0.3974	784.89	–	1.219
x2 = 0.3999	–	1206	–
x2 = 0.4481	782.64	–	1.113
x2 = 0.4885	780.93	–	1.044
x2 = 0.4976	–	1203	–
x2 = 0.5997	–	1202	–
x2 = 0.6007	776.49	–	0.901
x2 = 0.6973	773.05	–	0.819
x2 = 0.6984	–	1204	–
x2 = 0.8001	769.78	–	0.75
x2 = 0.8007	–	1207	–
x2 = 0.8981	767.12	–	0.704
x2 = 0.8998	–	1211	–
x2 = 0.9488	–	1211	–

CCCCCC(C)O (stereo unspecified) [2-heptanol] + CC1CCCCC1
[1]
Conditions	mass density [kg/m3]	speed of sound [m/s]	viscosity [mPa·s]
x2 = 0.0998	–	1278	–
x2 = 0.103	808.34	–	3.935
x2 = 0.1479	–	1272	–
x2 = 0.1524	805.84	–	3.415
x2 = 0.206	–	1263	–
x2 = 0.2071	803.04	–	2.945
x2 = 0.2564	800.53	–	2.587
x2 = 0.3047	798.08	–	2.287
x2 = 0.3053	–	1250	–
x2 = 0.3558	795.52	–	2.013
x2 = 0.3966	–	1239	–
x2 = 0.4019	793.23	–	1.817
x2 = 0.4469	791.02	–	1.649
x2 = 0.4951	788.67	–	1.49
x2 = 0.5005	–	1229	–
x2 = 0.5969	783.72	–	1.225
x2 = 0.5973	–	1223	–
x2 = 0.7017	–	1223	–
x2 = 0.703	778.57	–	1.017
x2 = 0.7974	–	1222	–
x2 = 0.7979	773.96	–	0.879
x2 = 0.8883	769.71	–	0.773
x2 = 0.9017	–	1219	–
x2 = 0.9514	–	1215	–

CCCC(C)O (stereo unspecified) [pentan-2-ol]
[2]
Conditions	mass density [kg/m3]	speed of sound [m/s]	viscosity [mPa·s]
–	805.4	1235	3.421

CCC(C)O (stereo unspecified) [butan-2-ol]
[2]
Conditions	mass density [kg/m3]	speed of sound [m/s]	viscosity [mPa·s]
–	802.54	1213	2.907

CC1CCCCC1 [methylcyclohexane]
[2]
Conditions	mass density [kg/m3]	speed of sound [m/s]	viscosity [mPa·s]
–	764.99	1209	0.683

CCCCCCC(C)O (stereo unspecified) [2-octanol]
[2]
Conditions	mass density [kg/m3]	viscosity [mPa·s]
–	816.13	6.568

CC(C)O [propan-2-ol]
[2]
Conditions	mass density [kg/m3]	speed of sound [m/s]	viscosity [mPa·s]
–	781.06	1142	2.098

CC1CCCCC1 [methylcyclohexane] + CCC(C)O
[1]
Conditions	mass density [kg/m3]	speed of sound [m/s]	viscosity [mPa·s]
x1 = 0.0988	–	1207	–
x1 = 0.1026	796.47	–	2.207
x1 = 0.1536	793.6	–	1.933
x1 = 0.2015	791.01	1199	1.72
x1 = 0.2544	788.28	–	1.509
x1 = 0.3058	–	1193	–
x1 = 0.3307	784.56	–	1.281
x1 = 0.3604	783.2	–	1.216
x1 = 0.3993	–	1190	–
x1 = 0.4086	781.07	–	1.107
x1 = 0.4679	778.61	–	1.002
x1 = 0.5007	–	1189	–
x1 = 0.5012	777.3	–	0.953
x1 = 0.5872	774.19	–	0.856
x1 = 0.6001	–	1189	–
x1 = 0.6926	770.91	–	0.77
x1 = 0.7	–	1192	–
x1 = 0.7737	–	1196	–
x1 = 0.7844	768.54	–	0.729
x1 = 0.8916	766.35	–	0.696
x1 = 0.8996	–	1203	–
x1 = 0.9489	–	1206	–

CC1CCCCC1 [methylcyclohexane] + CC(C)O
[1]
Conditions	mass density [kg/m3]	speed of sound [m/s]	viscosity [mPa·s]
x1 = 0.0648	778.57	–	1.771
x1 = 0.1102	776.98	–	1.589
x1 = 0.1123	–	1143	–
x1 = 0.1475	775.78	–	1.462
x1 = 0.2041	774.1	–	1.315
x1 = 0.2053	–	1143	–
x1 = 0.2422	773.07	–	1.232
x1 = 0.303	771.57	–	1.113
x1 = 0.3034	–	1144	–
x1 = 0.3511	770.5	–	1.034
x1 = 0.3937	–	1148	–
x1 = 0.3947	769.61	–	0.975
x1 = 0.4603	768.4	–	0.896
x1 = 0.4954	767.81	–	0.86
x1 = 0.5031	–	1155	–
x1 = 0.5589	766.86	–	0.801
x1 = 0.578	766.6	–	0.789
x1 = 0.5788	–	1160	–
x1 = 0.6707	765.53	–	0.734
x1 = 0.6715	–	1168	–
x1 = 0.7466	–	1176	–
x1 = 0.7715	–	1178	–
x1 = 0.7727	764.75	–	0.695
x1 = 0.8299	–	1184	–
x1 = 0.8993	–	1194	–
x1 = 0.9011	764.45	–	0.679
x1 = 0.9472	–	1201	–

CCCCC(C)O (stereo unspecified) [2-hexanol] + CC1CCCCC1
[1]
Conditions	mass density [kg/m3]	speed of sound [m/s]	viscosity [mPa·s]
x2 = 0.1002	–	1252	–
x2 = 0.1017	804.9	–	3.089
x2 = 0.1514	802.31	–	2.701
x2 = 0.2026	799.67	–	2.344
x2 = 0.2041	–	1239	–
x2 = 0.2473	797.41	–	2.082
x2 = 0.2837	–	1231	–
x2 = 0.2995	794.85	–	1.836
x2 = 0.3508	792.24	–	1.632
x2 = 0.3521	–	1225	–
x2 = 0.3989	–	1222	–
x2 = 0.4019	789.75	–	1.468
x2 = 0.452	787.34	–	1.345
x2 = 0.4948	–	1216	–
x2 = 0.4972	785.2	–	1.227
x2 = 0.5955	780.68	–	1.052
x2 = 0.5978	–	1212	–
x2 = 0.6904	–	1209	–
x2 = 0.6956	776.28	–	0.917
x2 = 0.808	–	1208	–
x2 = 0.8089	771.63	–	0.798
x2 = 0.8967	–	1214	–
x2 = 0.8987	768.24	–	0.729
x2 = 0.9509	–	1215	–
